Data on 7 compounds can be found in patent US9945860B2, “Nicotinamide adenine dinucleotide indicators, methods of preparation and application thereof” (East China University of Science and Technology, priority 2011, dated 2018).

Several values for one entry are separate records, joined by “and”; a condition that tells them apart may be missing. Equal values may be shown once.

The test system of series [1] is NADH levels in mitochondria. In words: Real-time detection of mitochondrial NADH when respiratory chain complexes are inhibited. It is filed as cell-based. To be noted: for fluorescence (ex 485, em 528) of the sensor in mitochondria: treated for 30 min. How it is done: NADH that produced via glycolysis pathway and tricarboxylic acid cycle pathway will be oxidized by the oxidative phosphorylation pathway of mitochondrial respiratory chain, and then generate ATP to provide energy for various life activities. Fluorescent sensors for nicotinamide adenine dinucleotide were used to measure changes of NADH levels in mitochondria when various complexes in the respiratory chain were inhibited. […] Time interval between the figures was 1 min. The cells were observed before and after treatment under a laser scanning confocal microscope (Nikon, Japan). […].

For another series, the system named is 293FT cells. In words: Real-time measurement of intracellular NADH after adding external NADH to the culture medium. The series is classed as cell-based. From the text:
As described in Example 7, the fluorescence sensors for reduced nicotinamide adenine dinucleotide were expressed in different subcellular organelles of 293FT cells. […] Following the addition of external NADH into cell culture medium, transfected cells were observed under a laser scanning confocal microscope (Nikon, Japan). […] As to the control group in comparison, the cpYFP presented alone was not affected by extra NADH either. Therefore, effects of pH and the variation in cpYFP per se by environmental changes could be excluded. This series of sensors were further utilized to detect influences of extra NADH on other organelles, and observed that extra NADH could also increase the NADH levels in nucleus and mitochondria, the results for nucleus study are shown in FIG. 8-1B, and those for mitochondria study are shown in FIG. 8-1C.

The subject of series [2] is NADH levels in different subcellular compartments. In words: Real-time measurement of NADH levels regulated by glucose, pyruvate and lactate. It is filed as cell-based. From the text: Glycolysis is an important pathway of producing NADH and it plays a vital role in regulating intracellular NADH levels. The nicotinamide adenine dinucleotide fluorescent sensors were used to test how several important metabolites in this pathway, glucose, pyruvate and lactate, would influence the NADH levels in different subcellular compartments. […] As products of glycolysis pathway, pyruvate and lactate are presented in the cytoplasm with a dynamic balance between them. At increased intracellular levels of pyruvate, lactate dehydrogenase consumes NADH and produces lactate and NAD^+, and in turn, leads to the decrease of NADH levels in cytoplasm. At increased intracellular levels of lactate, lactate dehydrogenase consumes NAD^+ and produces pyruvate and NADH, and in turn, leads to the increase of NADH levels in cytoplasm.

A short description of series [3]: Spectral characteristics of fluorescent sensors (excitation and emission spectra). The series is classed as physicochemical. The following applies: 10 μM sensor in 100 mM KPi, pH7.4. The method, then: The fluorescent sensors that prepared above were dissolved in assay buffer (100 mM KPi, pH7.4) to formulate fluorescent sensor solutions to a final concentration of 10 μM. Then their absorption spectra were measured using a Multi-functional Fluorescence Microplate Reader (Synergy2, Biotek) (FIG. 3A).
Their excitation and emission spectra were determined using a fluorescence spectrophotometer (Cary Eclipse Fluorescence spectrophotometer, Varian) (FIG. 3B).

The next series relates to H1299 tumor cells. In words: In vivo imaging of NADH metabolism in H1299-superFrex tumors. To be noted: 300 μl sodium pyruvate (100 mM) via the tail vein. The arrangement: species or system nude mice. The method, then:
H1299 tumor cells were transfected with pcDNA3.1-cyt-superFrex, and then screened under Hygromycin B for 2 weeks. […] Male nude mice of 5-6 weeks old were subcutaneously injected with 200 μl of H1299-superFrex cell suspension (1.0×10^7 cells) into their right armpits and housed for 3-4 weeks at SPF Animal facility, tumors in the nude mice grew to 0.6-1.0 cm. The nude mice were anaesthetized and then injected with 300 μl of sodium pyruvate (100 mM) via the tail vein. Effects of the agent on tumor metabolism were observed immediately with Kodak multifunctional vivo imaging system (Carestream, USA). […] Over time, pyruvate was gradually consumed metabolically, and the ratio of NADH/NAD^+ in tumor cells resumed the initial level (FIG. 12-C). In summary, superFrex, the fluorescent sensor for reduced/oxidized nicotinamide adenine dinucleotide ratio, works well in real-time monitoring of the NADH metabolism in tumor tissues.

As to `O=C(O)CC[N+](=O)[O-]` [3-NP], the “NADH levels in mitochondria” value in series [1] (NADH sensor expressed in mitochondria, 6-minute profile) is on record as “greatly decline”.

In the case of `NC(=O)C1=CN([C@@H]2O[C@H](COP(=O)(O)OP(=O)(O)OC[C@H]3O[C@@H](n4cnc5c(N)ncnc54)[C@H](O)[C@@H]3O)[C@@H](O)[C@H]2O)C=CC1` [NADH, reduced nicotinamide adenine dinucleotide], the “intracellular NADH levels” value in the series on 293FT cells (external NADH added to medium) is “immediate increase”. Besides, the “NADH levels in nucleus and mitochondria” value in the series on 293FT cells (extra NADH) is reported as “increase”.

With `CC(O)C(=O)O` (stereo not drawn) [lactate], in series [2], the “NADH levels in cytoplasm” value was “rapid increase”.

In the case of `C=C(C)[C@H]1Cc2c(ccc3c2O[C@@H]2COc4cc(OC)c(OC)cc4[C@@H]2C3=O)O1` [rotenone], in series [1], the “fluorescence (ex 485, em 528) of the sensor in mitochondria” value is on record as “increased”.

As to “F-rex2: sensor from pRSETb-ydiH(189)-YFP-ydiH(190), Thermus aquaticus YdiH with cpYFP inserted, SEQ ID NO: 8”, in series [3], the emission peak came out at 518 nm; the excitation peaks was 410 nm and 500 nm; the “intensity of the latter excitation peak relative to the former” value is “about half”.

Take antimycin A: the “fluorescence (ex 485, em 528) of the sensor in mitochondria” value in series [1] is “increased”.

Take “cpYFP: circular permutation yellow fluorescent protein, control protein, SEQ ID NO: 22”: the “control tumor cells expressing cpYFP, change caused by pyruvate” value in the series on H1299 tumor cells is recorded as “no difference”. The “effect of extra NADH on control protein presented alone” value in the series with 293FT cells (293FT cells) was “not affected”. The “control protein expressed in mitochondria upon 3-NP treatment” value in series [1] (6-minute profile) is “no obvious change”.
